# Source: ChEMBL document CHEMBL1201862, “PubChem BioAssay data set” (2004)
# The source made the active and inactive calls. Cut-off read from the data, not from the text of the source: actives have a measured IC50 and inactives only a lower limit.
# Target: Envelope glycoprotein gp160 (Human immunodeficiency virus 1, UniProt Q6QLK5)
# Assay: cell-free HIV fusion peptide-binding blockers – biochemical, uHTS, fluorescence dequenching, […] (AID 1986)
# Chain of Envelope glycoprotein gp160 (Q6QLK5 whole entry, the tested form may be a part): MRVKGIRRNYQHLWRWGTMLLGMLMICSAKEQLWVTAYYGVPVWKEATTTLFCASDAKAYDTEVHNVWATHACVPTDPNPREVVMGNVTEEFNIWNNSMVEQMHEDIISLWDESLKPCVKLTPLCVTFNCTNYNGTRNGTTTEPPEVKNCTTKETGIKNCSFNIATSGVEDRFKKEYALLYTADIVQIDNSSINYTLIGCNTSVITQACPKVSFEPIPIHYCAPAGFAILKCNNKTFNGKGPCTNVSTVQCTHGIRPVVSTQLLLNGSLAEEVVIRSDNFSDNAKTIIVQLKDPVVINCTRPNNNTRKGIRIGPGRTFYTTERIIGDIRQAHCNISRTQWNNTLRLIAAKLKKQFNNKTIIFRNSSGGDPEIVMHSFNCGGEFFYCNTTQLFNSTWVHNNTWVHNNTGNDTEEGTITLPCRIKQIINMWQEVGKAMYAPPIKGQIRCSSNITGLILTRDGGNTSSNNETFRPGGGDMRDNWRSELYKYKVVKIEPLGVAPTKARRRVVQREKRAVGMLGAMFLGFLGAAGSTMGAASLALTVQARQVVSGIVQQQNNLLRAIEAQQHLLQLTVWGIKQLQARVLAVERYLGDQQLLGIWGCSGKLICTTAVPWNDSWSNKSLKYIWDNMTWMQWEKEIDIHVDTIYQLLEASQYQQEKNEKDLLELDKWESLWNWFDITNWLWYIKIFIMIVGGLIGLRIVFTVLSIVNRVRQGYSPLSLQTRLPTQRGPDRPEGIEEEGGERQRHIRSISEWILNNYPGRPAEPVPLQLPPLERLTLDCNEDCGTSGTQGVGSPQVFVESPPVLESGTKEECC
row,Compound,IC50
1,O=C(COc1ccc(Cl)cc1Cl)Nc1ccc(C(=O)Nc2ccccc2C(=O)O)cc1,9.54 µM (active)
2,COc1cc(NS(=O)(=O)c2ccc(NC(=S)NC(=O)c3sc4ccccc4c3Cl)cc2)nc(OC)n1,16.5 µM (active)
3,CC(C)S(=O)(=O)C1=NSC2=NC(=O)/C(=C\c3ccc(-c4cccc(C(=O)O)c4)o3)C(=N)N21,18.3 µM (active)
4,CCCCCC#CCC#CCC#CCC#CCCCC(=O)O,11.9 µM (active)
